Calls of active or inactive are those of the source. The calls are words filed in the database; no cut-off is given here.

The target in experiment [1] is T1, Hepatocyte growth factor receptor (Homo sapiens, UniProt P08581). Nature of the experiment: Inhibition of c-MET assessed as inhibition of HGF-induced phosphorylation at 5 uM by Western blotting analysis.
For experiment [2], the target named is T1, Hepatocyte growth factor receptor. Nature of the experiment: Inhibition of HGF-induced phosphorylation of c-MET in human NCI-H441 cells after 2 hrs by Western blotting analysis. It counts as cell-based.
Experiment [3] deals with Hepatocyte growth factor receptor (Canis lupus familiaris) (UniProt Q75ZY9). Nature of the experiment: Inhibition of c-MET in MDCK cells assessed as inhibition of HGF-induced urokinase activity at 10 uM after 24 hrs. It is filed as cell-based.
The target of experiment [4] is T1, Hepatocyte growth factor receptor. Nature of the experiment: Inhibition of HGF-induced phosphorylation of c-MET in human DU145 cells after 2 hrs by Western blotting analysis. It is filed as cell-based. Particulars: DU-145.
Experiment [5] has the same target. Briefly: Inhibition of c-MET by ELISA assay.
Experiment [6] has as its target Hepatocyte growth factor receptor (Mus musculus) (UniProt P16056). Nature of the experiment: Inhibition of c-MET in mouse NIH3T3 cells assessed as reduction of TPR-Met phosphorylation at 20 uM after 2 hrs by Western blotting analysis. It counts as cell-based.
Experiment [7] has as its target Hepatocyte growth factor receptor (Canis lupus familiaris) (UniProt Q75ZY9). Briefly: Inhibition of HGF-induced phosphorylation of c-MET in MDCK cells at 5 uM after 2 hrs by Western blotting analysis. It is filed as cell-based.
For experiment [8] the target is unchanged. Briefly: Inhibition of c-MET in MDCK cells assessed as inhibition of HGF-induced cell scattering at 10 uM after 24 hrs by microscopic analysis. It counts as cell-based.
The target is the same in experiment [9]. Nature of the experiment: Inhibition of c-MET in MDCK cells assessed as inhibition of HGF-induced urokinase activity after 24 hrs. It is filed as cell-based.
The target of experiment [10] is T1, Hepatocyte growth factor receptor. Nature of the experiment: Inhibition of HGF-induced phosphorylation of c-MET in human A549 cells after 2 hrs by Western blotting analysis. It counts as cell-based.
The target is the same in experiment [11]. Nature of the experiment: Inhibition of HGF-induced phosphorylation of c-MET in human DU145 cells at 5 uM after 2 hrs by Western blotting analysis. To be noted: DU-145. It counts as cell-based.
The target is the same in experiment [12]. Nature of the experiment: Inhibition of c-MET in human MKN45 cells assessed as reduction of phosphorylation at 20 uM after 2 hrs by Western blotting analysis. Particulars: MKN-45. It is filed as cell-based.
Experiment [13] shares this target. Nature of the experiment: Inhibition of HGF-induced phosphorylation of c-MET in human NCI-H441 cells at 5 uM after 2 hrs by Western blotting analysis. It counts as cell-based.
Experiment [14] has as its target Hepatocyte growth factor receptor (Canis lupus familiaris) (UniProt Q75ZY9). Briefly: Inhibition of c-MET in MDCK cells assessed as inhibition of HGF-induced branching morphogenesis after 5 days by microscopic analysis. It counts as cell-based.
The target is the same in experiment [15]. Nature of the experiment: Inhibition of c-MET in MDCK cells assessed as inhibition of HGF-induced cell motility by wound healing assay. It counts as cell-based.
Experiment [16] has the same target. Briefly: Inhibition of c-MET in MDCK cells assessed as inhibition of HGF-induced cell scattering after 24 hrs by microscopic analysis. It is filed as cell-based.
Experiment [17] shares this target. Nature of the experiment: Inhibition of HGF-induced phosphorylation of c-MET in MDCK cells after 2 hrs by Western blotting analysis. It counts as cell-based.
In experiment [18] the target is T1, Hepatocyte growth factor receptor. Nature of the experiment: Inhibition of HGF-induced phosphorylation of c-MET in human A549 cells at 5 uM after 2 hrs by Western blotting analysis. It is filed as cell-based.
Experiment [19] addresses Hepatocyte growth factor receptor (Canis lupus familiaris) (UniProt Q75ZY9). Nature of the experiment: Inhibition of c-MET in MDCK cells assessed as inhibition of HGF-induced cell motility at 10 uM by wound healing assay. It counts as cell-based.

Hepatocyte growth factor receptor (Canis lupus familiaris), sequence (Q75ZY9 whole entry): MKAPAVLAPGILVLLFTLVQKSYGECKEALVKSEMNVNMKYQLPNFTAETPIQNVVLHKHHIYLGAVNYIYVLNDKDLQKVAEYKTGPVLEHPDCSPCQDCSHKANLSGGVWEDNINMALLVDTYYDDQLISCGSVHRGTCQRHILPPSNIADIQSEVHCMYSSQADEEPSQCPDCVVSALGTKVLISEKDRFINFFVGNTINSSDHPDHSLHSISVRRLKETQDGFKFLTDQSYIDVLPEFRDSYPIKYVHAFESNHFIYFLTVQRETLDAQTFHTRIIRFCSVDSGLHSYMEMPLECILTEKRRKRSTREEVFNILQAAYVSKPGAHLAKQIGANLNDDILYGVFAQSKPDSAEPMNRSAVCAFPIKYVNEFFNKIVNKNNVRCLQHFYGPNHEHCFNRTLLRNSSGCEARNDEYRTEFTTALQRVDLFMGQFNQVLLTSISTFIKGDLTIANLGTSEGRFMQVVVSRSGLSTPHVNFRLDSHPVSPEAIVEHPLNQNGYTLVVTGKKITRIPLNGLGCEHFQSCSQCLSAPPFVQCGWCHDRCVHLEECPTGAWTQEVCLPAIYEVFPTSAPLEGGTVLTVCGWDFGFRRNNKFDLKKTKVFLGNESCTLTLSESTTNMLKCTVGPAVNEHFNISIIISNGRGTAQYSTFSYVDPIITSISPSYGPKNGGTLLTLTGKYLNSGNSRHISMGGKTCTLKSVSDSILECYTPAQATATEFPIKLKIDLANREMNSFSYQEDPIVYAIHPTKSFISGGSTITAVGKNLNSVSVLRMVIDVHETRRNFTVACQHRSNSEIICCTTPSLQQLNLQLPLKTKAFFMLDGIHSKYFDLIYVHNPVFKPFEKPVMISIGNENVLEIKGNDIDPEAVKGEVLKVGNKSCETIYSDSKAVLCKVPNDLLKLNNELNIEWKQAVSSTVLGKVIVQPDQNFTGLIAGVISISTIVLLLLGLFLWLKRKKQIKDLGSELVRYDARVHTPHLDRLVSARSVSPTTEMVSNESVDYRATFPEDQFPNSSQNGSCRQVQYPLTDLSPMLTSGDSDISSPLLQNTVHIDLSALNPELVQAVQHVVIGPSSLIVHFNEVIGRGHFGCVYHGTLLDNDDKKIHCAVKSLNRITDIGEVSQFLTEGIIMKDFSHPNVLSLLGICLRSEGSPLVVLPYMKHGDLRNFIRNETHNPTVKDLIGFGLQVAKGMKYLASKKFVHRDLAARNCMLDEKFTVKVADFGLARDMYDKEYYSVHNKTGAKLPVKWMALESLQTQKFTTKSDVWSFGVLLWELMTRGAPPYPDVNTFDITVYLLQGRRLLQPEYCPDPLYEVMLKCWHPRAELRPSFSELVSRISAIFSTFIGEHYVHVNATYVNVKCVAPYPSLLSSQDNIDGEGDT
T1 sequence (P08581 whole entry): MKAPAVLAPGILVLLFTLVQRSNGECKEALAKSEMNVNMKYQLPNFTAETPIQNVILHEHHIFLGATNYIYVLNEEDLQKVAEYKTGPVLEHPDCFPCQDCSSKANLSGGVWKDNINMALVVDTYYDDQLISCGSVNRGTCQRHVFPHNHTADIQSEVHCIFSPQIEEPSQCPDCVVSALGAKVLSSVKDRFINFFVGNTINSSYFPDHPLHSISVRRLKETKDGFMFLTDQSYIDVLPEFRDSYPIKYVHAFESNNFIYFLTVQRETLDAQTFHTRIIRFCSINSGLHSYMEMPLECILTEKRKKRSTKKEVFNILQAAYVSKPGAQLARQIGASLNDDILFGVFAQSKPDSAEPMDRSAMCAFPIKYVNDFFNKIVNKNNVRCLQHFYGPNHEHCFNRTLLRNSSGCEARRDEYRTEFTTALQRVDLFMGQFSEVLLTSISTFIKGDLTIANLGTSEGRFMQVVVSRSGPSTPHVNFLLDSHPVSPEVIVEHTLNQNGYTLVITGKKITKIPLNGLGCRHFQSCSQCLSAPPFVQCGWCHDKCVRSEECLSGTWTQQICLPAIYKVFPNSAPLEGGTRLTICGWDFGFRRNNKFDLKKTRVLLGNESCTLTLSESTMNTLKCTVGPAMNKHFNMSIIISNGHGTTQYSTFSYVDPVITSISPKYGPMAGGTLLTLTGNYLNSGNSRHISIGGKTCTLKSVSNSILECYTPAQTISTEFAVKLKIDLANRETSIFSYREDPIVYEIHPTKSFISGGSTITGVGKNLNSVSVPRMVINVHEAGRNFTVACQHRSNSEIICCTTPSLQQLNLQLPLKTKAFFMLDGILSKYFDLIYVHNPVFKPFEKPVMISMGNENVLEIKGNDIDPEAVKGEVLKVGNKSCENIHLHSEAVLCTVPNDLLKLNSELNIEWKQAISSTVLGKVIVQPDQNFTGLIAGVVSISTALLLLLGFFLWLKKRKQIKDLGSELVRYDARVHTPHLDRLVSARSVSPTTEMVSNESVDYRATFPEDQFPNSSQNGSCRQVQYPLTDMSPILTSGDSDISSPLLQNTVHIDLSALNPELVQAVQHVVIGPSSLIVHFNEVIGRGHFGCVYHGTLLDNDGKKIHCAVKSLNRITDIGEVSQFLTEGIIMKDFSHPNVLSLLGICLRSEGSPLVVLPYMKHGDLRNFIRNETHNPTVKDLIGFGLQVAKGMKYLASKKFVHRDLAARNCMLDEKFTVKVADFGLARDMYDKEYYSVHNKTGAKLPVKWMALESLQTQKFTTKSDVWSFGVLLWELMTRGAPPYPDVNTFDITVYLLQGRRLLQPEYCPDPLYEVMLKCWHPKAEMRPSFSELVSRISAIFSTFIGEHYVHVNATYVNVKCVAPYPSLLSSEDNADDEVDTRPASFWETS
Hepatocyte growth factor receptor (Mus musculus), sequence (P16056 whole entry): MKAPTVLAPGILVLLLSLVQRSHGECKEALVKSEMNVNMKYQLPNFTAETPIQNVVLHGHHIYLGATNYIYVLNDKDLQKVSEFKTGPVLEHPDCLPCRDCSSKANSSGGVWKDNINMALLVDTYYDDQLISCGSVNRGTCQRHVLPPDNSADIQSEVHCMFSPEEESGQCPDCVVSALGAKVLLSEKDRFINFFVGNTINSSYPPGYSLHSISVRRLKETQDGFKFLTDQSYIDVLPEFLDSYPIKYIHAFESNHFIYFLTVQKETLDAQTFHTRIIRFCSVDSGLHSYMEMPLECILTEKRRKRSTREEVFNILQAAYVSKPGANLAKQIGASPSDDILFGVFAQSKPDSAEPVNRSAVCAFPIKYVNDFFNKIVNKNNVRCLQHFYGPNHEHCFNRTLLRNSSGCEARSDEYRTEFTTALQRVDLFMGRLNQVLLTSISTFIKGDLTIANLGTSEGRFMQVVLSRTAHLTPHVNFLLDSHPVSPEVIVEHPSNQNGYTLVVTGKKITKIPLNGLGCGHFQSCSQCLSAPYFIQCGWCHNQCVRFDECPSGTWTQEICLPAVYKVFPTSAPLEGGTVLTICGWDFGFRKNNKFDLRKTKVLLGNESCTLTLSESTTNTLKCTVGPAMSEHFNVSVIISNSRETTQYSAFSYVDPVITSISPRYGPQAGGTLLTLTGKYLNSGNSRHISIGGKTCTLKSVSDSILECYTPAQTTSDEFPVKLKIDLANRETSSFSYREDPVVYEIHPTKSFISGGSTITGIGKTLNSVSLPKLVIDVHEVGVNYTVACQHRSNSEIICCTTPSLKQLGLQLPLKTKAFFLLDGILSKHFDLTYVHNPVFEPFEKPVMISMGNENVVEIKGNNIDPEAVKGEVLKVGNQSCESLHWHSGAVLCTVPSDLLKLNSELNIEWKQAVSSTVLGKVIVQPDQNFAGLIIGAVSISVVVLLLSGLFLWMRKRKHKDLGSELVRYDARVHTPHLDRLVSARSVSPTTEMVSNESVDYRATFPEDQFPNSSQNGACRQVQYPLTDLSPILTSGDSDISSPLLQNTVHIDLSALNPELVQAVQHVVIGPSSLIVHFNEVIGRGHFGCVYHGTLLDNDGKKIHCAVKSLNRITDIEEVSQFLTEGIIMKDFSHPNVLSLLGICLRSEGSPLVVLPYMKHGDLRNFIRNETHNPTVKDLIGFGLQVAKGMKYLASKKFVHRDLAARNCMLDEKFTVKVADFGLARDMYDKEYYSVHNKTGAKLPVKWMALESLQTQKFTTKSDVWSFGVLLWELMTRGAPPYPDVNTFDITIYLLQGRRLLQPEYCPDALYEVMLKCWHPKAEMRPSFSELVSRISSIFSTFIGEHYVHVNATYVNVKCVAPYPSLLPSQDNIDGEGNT

Regarding `Cc1c(O)c(C=O)c(O)c(C(=O)CC(C)C)c1O`, the inhibition result in experiment [1] is “inactive”.
Turning to `CC(C)C[C@H](c1c(O)c(C=O)c(O)c(C=O)c1O)[C@@]1(C)CC[C@@H]2[C@@H]1[C@H]1[C@@H](CC[C@@]2(C)O)C1(C)C`, the inhibition result in experiment [1] is “Active”.
Regarding `C[C@@H]1CC[C@@H]2[C@@H]1[C@H]1[C@@H](CC[C@@]2(C)O)C1(C)C`, the inhibition entry in experiment [1] is “inactive”.
In the case of `CC(C)CC(=O)c1c(O)c(C=O)c(O)c(C=O)c1O`, in [1], the inhibition result was “inactive”.
With `CC(C)CC(=O)c1c(O)c(C=O)c(O)c(C[C@@]2(C)CC[C@@H]3[C@@H]2[C@H]2[C@@H](CC[C@@]3(C)O)C2(C)C)c1O` [EUCALYPTIN A], the inhibition entry in [2] was “Dose-dependent effect”; in experiment [3], 80%; in experiment [4] it was “Dose-dependent effect”; in [7], greater than 50%; in [9] it was “Dose-dependent effect”; in experiment [10], “Dose-dependent effect”. Moreover, the inhibition was greater than 50% in [11]; greater than 50% in experiment [13]; “Dose-dependent effect” in experiment [15]; “Dose-dependent effect” in experiment [16]; “Dose-dependent effect” in [17]; greater than 50% in experiment [18]. Besides, the IC50 in experiment [5] is greater than 50 µM. Further, the inhibition result in [6] and in [12] was “inactive” in each case. Moreover, the inhibition entry in experiment [1], in [8], in experiment [14] and in experiment [19] was “Active” throughout.
Turning to `CC1(C)[C@H]2[C@H]3[C@@H](CC[C@]3(C)O)[C@](C)(O)CC[C@H]21`, in experiment [1], the inhibition entry is “inactive”.
For the compound `CC(C)C[C@@H](c1c(O)c(C=O)c(O)c(C=O)c1O)[C@@]1(C)CC[C@@H]2[C@@H]1[C@H]1[C@@H](CC[C@@]2(C)O)C1(C)C`, the inhibition result in experiment [1] is “Active”.
